This test has as its target T1, human LXRβ (Homo sapiens, UniProt P55055).
T1 construct: expressed in transfected cells; host or cells: HEK293 cells (ATCC CRL-1573), transient transfection with pFA-hLXRβ/GAL4 and pUAS
T1 sequence (P55055 222-460 limits assumed): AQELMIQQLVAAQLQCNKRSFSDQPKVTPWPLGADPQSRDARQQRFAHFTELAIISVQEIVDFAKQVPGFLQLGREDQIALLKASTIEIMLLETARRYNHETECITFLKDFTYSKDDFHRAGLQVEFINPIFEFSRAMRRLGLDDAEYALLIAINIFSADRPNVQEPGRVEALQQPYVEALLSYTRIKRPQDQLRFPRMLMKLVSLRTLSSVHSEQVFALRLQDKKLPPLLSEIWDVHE
Put plainly: Assay for Transcriptional Activity of LXRβ (GAL4-hLXRβ LBD luciferase reporter, transient transfection). The class given is cell-based. The following applies: HEK293 cells transfected with pFA-hLXRβ/GAL4 and pUAS, 24 hours; for Emax: fold value in comparison with the control (DMSO-treated group); for EC50: increase of transcriptional activity of LXRβ, average of three independent tests. From the text: The ligand-binding domain (LBD) cDNA of human LXRβ was inserted into an expression vector (pFA, Stratagene, USA) site adjacent to the yeast GAL4 transcription factor DNA binding domain to prepare an expression construct (pFA-hLXRβ/GAL4) (Willey et al., Genes & Development 9 1033-1045 (1995). The GAL4-responsive luciferase reporter plasmid, i.e., pUAS (Stratagene, USA), contained five copies of the GAL4 response element placed adjacent to the promoter and the luciferase reporter gene. The pFA-hLXRβ/GAL4 and pUAS were introduced into mammalian cells through transient transfection, followed by measuring the transcriptional activity of LXRβ.
HEK293 cells (human kidney cells, sATCC, CRL-1573) were incubated at a T-75 flask containing a DMEM supplemented with 10% fetal bovine serum (FBS) in a 37° C., until they reach about 70˜80% confluency. The culture media containing the cells was added to each well of a 96-well plate in a density of 5×10^4 cells per well. The pFA-hLXRβ/GAL4 and pUAS was transfected to the cells using a cationic-lipid transfection reagent (Lipofectamine™, Invitrogen), through culturing at 37° C. for 3 hours for transient transfection according to the manufacturer's instruction. The test compounds were dissolved in dimethyl sulfoxide (DMSO) in the concentrations of 50, 30, 10, 3, 1, 0.3, 0.1, 0.03, and 0.01 μM and then cells were treated with the prepared compound-containing solution (100 μl). The cells were incubated at 37° C. for 24 hours. After removal of the medium from each well, the lysis buffer (25 mM Tricine pH7.8, 2 mM DTT, 2 mM EGTA, 10% glycerol, 1% Triton X-100) was added with the amount of 20 μl per each well, and the plate was stirred at room temperature for 15 minutes. The luciferase reagent (prepared by adding 10 ml of the luciferase buffer (Promega) to 1 vial of the luciferase substrate (Promega)) was added to each well with the amount of 100 μl per well, followed by assaying with a luminometer according to the manufacturer's instruction.
The dose-response curve for calculating the EC50 values of the test compounds on the increase of transcriptional activity of LXRβ was prepared using the known LXR agonist (i.e., N-(2,2,2-trifluoro-ethyl)-N-[4-(2,2,2-trifluoro-1-hydroxy-1-trifluoromethyl-ethyl)-phenyl]-benzenesulfonamide) as a positive control and the vehicle (DMSO) as a negative control. The dose-response curve was produced from the 9-point curve having different concentrations at a 1/2 log unit. The EC50 value of a test compound, which is defined as a concentration for initiating the reaction corresponding to the half value between the Top value (i.e., the maximum value) and the Bottom value (baseline), was calculated according to the following equation. Y=Bottom+(Top-Bottom)/(1+10^((log EC50-X)*Hill Slope)).
In the above equation, Y is the observed value; X is the log concentration; Hill Slope is the slope of the curve; and Top and Bottom are the maximum value of test compound and the baseline value, respectively.
The following tables 1 and 2 show the EC50 values of the test compounds measured as in the above. In the tables 1 and 2, each EC50 value represents an average value obtained from three independent tests.

As to `O=S(=O)(C1CC1)N1CCN(c2cccc(C3CC(C(F)(F)C(F)(F)F)=NN3c3ccc(F)cc3F)c2)CC1` (stereo not shown) [Example 97, 5-[3-(4-cyclopropanesulfonyl-piperazin-1-yl)-phenyl]-1-(2,4-difluoro-phenyl)-3-pentafluoroethyl-4,5-dihydro-1H-pyrazole], the Emax is recorded as 69 fold and the midpoint of the response, the EC50, lay at 3090 nM.

`CSc1ccc(-c2cccc(C3CC(C(F)(F)C(F)(F)F)=NN3c3ccccc3Cl)c2)cc1` (stereo not shown) [Example 105, 1-(2-chloro-phenyl)-5-(4′-methylsulfanyl-biphenyl-3-yl)-3-pentafluoroethyl-4,5-dihydro-1H-pyrazole] displayed an Emax of 55 fold and an EC50 of 6310 nM.

On to `CS(=O)(=O)c1ccc(-c2cccc(C3CC(C(F)(F)C(F)(F)F)=NN3c3ccccc3Cl)c2)cc1` (stereo not shown) [Example 106, 1-(2-chloro-phenyl)-5-(4′-methylsulfonyl-biphenyl-3-yl)-3-pentafluoroethyl-4,5-dihydro-1H-pyrazole], for which the Emax is given as 85 fold and the EC50 turned out to be 1160 nM.

For `CC(O)c1ccc(-c2cccc(C3CC(C(F)(F)C(F)(F)F)=NN3c3ccccc3Cl)c2)cc1` (stereo not shown) [Example 108, 1-(2-chloro-phenyl)-5-[4′-(1-hydroxy-ethyl)-biphenyl-3-yl]-3-pentafluoroethyl-4,5-dihydro-1H-pyrazole], the Emax worked out at 44 fold and the midpoint of the response, the EC50, lay at 993 nM.

For `Oc1cccc(-c2cccc(C3CC(C(F)(F)C(F)(F)F)=NN3c3ccccc3Cl)c2)c1` (stereo not shown) [Example 111, 1-(2-chloro-phenyl)-5-(3′-hydroxy-biphenyl-3-yl)-3-pentafluoroethyl-4,5-dihydro-1H-pyrazole], the Emax worked out at 41 fold and a half-maximal effect (EC50) was put at 4150 nM.

`COc1ccc(-c2cccc(C3CC(C(F)(F)C(F)(F)F)=NN3c3ccccc3Cl)c2)cc1OC` (stereo not shown) [Example 112, 1-(2-chloro-phenyl)-5-(3′,4′-dimethoxy-biphenyl-3-yl)-3-pentafluoroethyl-4,5-dihydro-1H-pyrazole] gave an Emax of 57 fold and a half-maximal effective concentration (EC50) of 8520 nM.

Take `CS(=O)(=O)c1ccc(-c2cc(C3CC(C(F)(F)C(F)(F)F)=NN3c3ccc(F)cc3F)ccc2F)cc1` (stereo not shown) [Example 129, 1-(2,4-difluoro-phenyl)-5-(6-fluoro-4′-methanesulfonyl-biphenyl-3-yl)-3-pentafluoroethyl-4,5-dihydro-1H-pyrazole]: the Emax was 44 fold and the EC50 was 7990 nM.

In the case of `Fc1ccc(N2N=C(C(F)(F)C(F)(F)F)CC2c2ccc(F)c(-c3ccc(Cl)nc3)c2)c(F)c1` (stereo not shown) [Example 130, 1-(2,4-difluoro-phenyl)-5-[4-fluoro-3-(6-chloro-pyridin-3-yl)-phenyl]-3-pentafluoroethyl-4,5-dihydro-1H-pyrazole], the Emax was found to be 34 fold and the EC50 is 10300 nM.

Turning to `COc1ccc(-c2cc(C3CC(C(F)(F)C(F)(F)F)=NN3c3ccc(F)cc3F)ccc2F)cn1` (stereo not shown) [Example 131, 1-(2,4-difluoro-phenyl)-5-[4-fluoro-3-(6-methoxy-pyridin-3-yl)-phenyl]-3-pentafluoroethyl-4,5-dihydro-1H-pyrazole], the Emax was 45 fold and a half-maximal response (EC50) required 12800 nM.

`CSc1cccc(-c2ccc(F)c(C3CC(C(F)(F)C(F)(F)F)=NN3c3ccc(F)cc3F)c2)c1` (stereo not shown) [Example 138, 1-(2,4-difluoro-phenyl)-5-(4-fluoro-3′-(methylsulfanyl)biphenyl-3-yl)-3-pentafluoroethyl-4,5-dihydro-1H-pyrazole] had an Emax of 153 fold and an EC50 of 501 nM.

`CSc1ccc(-c2ccc(F)c(C3CC(C(F)(F)C(F)(F)F)=NN3c3ccc(F)cc3F)c2)cn1` (stereo not shown) [Example 140, 1-(2,4-difluoro-phenyl)-5-[6-fluoro-3-(6-methylsulfanyl-pyridin-3-yl)-phenyl]-3-pentafluoroethyl-4,5-dihydro-1H-pyrazole] displayed an Emax of 143 fold and an EC50 of 1770 nM.

As to `CS(=O)(=O)c1ccc(-c2ccc(F)c(C3CC(C(F)(F)C(F)(F)F)=NN3c3ccc(F)cc3F)c2)cn1` (stereo not shown) [Example 142, 1-(2,4-difluoro-phenyl)-5-[6-fluoro-3-(6-methanesulfonyl-pyridin-3-yl)-phenyl]-3-pentafluoroethyl-4,5-dihydro-1H-pyrazole], the Emax worked out at 73 fold and the response was half-maximal at 181 nM (EC50).

The compound `CS(=O)(=O)N1CCN(c2ccc(F)c(C3CC(C(F)(F)C(F)(F)F)=NN3c3ccc(F)cc3F)c2)CC1` (stereo not shown) [Example 145, 1-(2,4-difluoro)-5-[2-fluoro-5-(4-methanesulfonyl-piperazin-1-yl)-phenyl]-3-pentafluoroethyl-4,5-dihydro-1H-pyrazole] displayed an Emax of 107 fold and an EC50 of 885 nM.

`O=S(=O)(C1CC1)N1CCN(c2ccc(F)c(C3CC(C(F)(F)C(F)(F)F)=NN3c3ccc(F)cc3F)c2)CC1` (stereo not shown) [Example 146, 1-(2,4-difluoro)-5-[2-fluoro-5-(4-cyclopropanesulfonyl-piperazin-1-yl)-phenyl]-3-pentafluoroethyl-4,5-dihydro-1H-pyrazole] yielded an Emax of 105 fold and an EC50 of 842 nM.

Compound `CS(=O)(=O)N1CC=C(c2ccc(F)c(C3CC(C(F)(F)C(F)(F)F)=NN3c3ccc(F)cc3F)c2)CC1` (stereo not shown) [Example 149, 1-(2,4-difluoro-phenyl)-5-[2-fluoro-5-(1-methanesulfonyl-1,2,3,6-tetrahydropyridin-4-yl)-phenyl]-3-pentafluoroethyl-4,5-dihydro-1H-pyrazole] registered an Emax of 124 fold and an EC50 of 303 nM.

The compound `CS(=O)(=O)c1cccc(-c2cccc(C3CC(C(F)(F)C(F)(F)F)=NN3c3ccccc3Cl)n2)c1` (stereo not shown) [Example 157, 1-(2-chloro-phenyl)-5-[2-(3-methanesulfonyl-phenyl)-pyridin-6-yl]-3-pentafluoroethyl-4,5-dihydro-1H-pyrazole] displayed an Emax of 96 fold and an EC50 of 397 nM.

`CS(=O)(=O)c1ccc(-c2cncc(C3CC(C(F)(F)C(F)(F)F)=NN3c3ccc(F)cc3F)c2)cc1` (stereo not shown) [Example 162, 1-(2,4-difluoro-phenyl)-5-[3-(4-methanesulfonyl-phenyl)-pyridin-5-yl]-3-pentafluoroethyl-4,5-dihydro-1H-pyrazole] returned an Emax of 59 fold and an EC50 of 2930 nM.

Regarding `CS(=O)(=O)c1cccc(-c2cncc(C3CC(C(F)(F)C(F)(F)F)=NN3c3ccc(F)cc3F)c2)c1` (stereo not shown) [Example 165, 1-(2,4-difluoro-phenyl)-5-[3-(3-methanesulfonyl-phenyl)-pyridin-5-yl]-3-pentafluoroethyl-4,5-dihydro-1H-pyrazole], the Emax was determined as 157 fold and it took 225 nM to reach a half-maximal effect (EC50).

Compound `CS(=O)(=O)c1ccc(-c2cncc(C3CC(C(F)(F)C(F)(F)F)=NN3c3ccc(F)cc3F)c2)cn1` (stereo not shown) [Example 166, 1-(2,4-difluoro-phenyl)-5-[3-(6-methanesulfonyl-pyridin-3-yl)-pyridin-5-yl]-3-pentafluoroethyl-4,5-dihydro-1H-pyrazole] returned an Emax of 56 fold and an EC50 of 7050 nM.

`O=S(=O)(C1CC1)N1CC=C(c2cncc(C3CC(C(F)(F)C(F)(F)F)=NN3c3ccc(F)cc3F)c2)CC1` (stereo not shown) [Example 168, 1-(2,4-difluoro-phenyl)-5-[3-(1-cyclopropanesulfonyl-1,2,3,6-tetrahydropyridin-4-yl)-pyridin-5-yl]-3-pentafluoroethyl-4,5-dihydro-1H-pyrazole] displayed an Emax of 30 fold and an EC50 of 6120 nM.

These data come from US9376420B2 (YUHAN CORPORATION, priority 2012, dated 2016).
